In the supplement of paper PMC10307832:

How the values were obtained:
Experiment in all cases: relative viability (nuclei count vs DMSO), 5 days (fraction); higher = more cells survive
IMD-0354 + Bortezomib = compound: O=C(Nc1cc(C(F)(F)F)cc(C(F)(F)F)c1)c1cc(Cl)ccc1O [IMD-0354] + CC(C)C[C@H](NC(=O)[C@H](Cc1ccccc1)NC(=O)c1cnccn1)B(O)O [Bortezomib] (partner 0.002 µM)
Method in brief: (§1)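 After 5 days of treatment, lung cancer cells in 1536-well plates were fixed and stained in a single step (final 0.05% Triton X-100, 1% formaldehyde, 1 ug/ml Hoechst) and their nuclei counted on 4× images. Treatment had been applied by pin tool the day after seeding as one drug alone or as a fixed anchor-drug dose with five library-drug doses (not always all listed) in √10 steps. Relative viability is the nuclei count of treated wells divided by that of vehicle wells, and values are medians of duplicate plates.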

CX-5461 + Palbociclib = compound: Cc1cnc(CNC(=O)c2c(=O)c3ccc(N4CCCN(C)CC4)nc3n3c2sc2ccccc23)cn1 [CX-5461] + CC(=O)c1c(C)c2cnc(Nc3ccc(N4CCNCC4)cn3)nc2n(C2CCCC2)c1=O [Palbociclib] (partner 0.5 µM)
Method in brief: as §1

IMD-0354 + Vorinostat = compound: O=C(Nc1cc(C(F)(F)F)cc(C(F)(F)F)c1)c1cc(Cl)ccc1O [IMD-0354] + O=C(CCCCCCC(=O)Nc1ccccc1)NO [Vorinostat] (partner 1 µM)
Method in brief: as §1

CX-5461 + Crizotinib = compound: Cc1cnc(CNC(=O)c2c(=O)c3ccc(N4CCCN(C)CC4)nc3n3c2sc2ccccc23)cn1 [CX-5461] + C[C@@H](Oc1cc(-c2cnn(C3CCNCC3)c2)cnc1N)c1c(Cl)ccc(F)c1Cl [Crizotinib] (partner 1 µM)
Method in brief: as §1

Cell Line | relative viability (IMD-0354 + Bortezomib; first compound 0.04 µM) | relative viability (IMD-0354 + Bortezomib; first compound 0.1265 µM) | relative viability (IMD-0354 + Bortezomib; first compound 0.4 µM) | relative viability (IMD-0354 + Bortezomib; first compound 1.265 µM) | relative viability (IMD-0354 + Bortezomib; first compound 4 µM) | relative viability (CX-5461 + Palbociclib; first compound 0.01 µM) | relative viability (CX-5461 + Palbociclib; first compound 0.03162 µM) | relative viability (CX-5461 + Palbociclib; first compound 0.1 µM) | relative viability (CX-5461 + Palbociclib; first compound 0.3162 µM) | relative viability (CX-5461 + Palbociclib; first compound 1 µM) | relative viability (IMD-0354 + Vorinostat; first compound 0.04 µM) | relative viability (IMD-0354 + Vorinostat; first compound 0.1265 µM) | relative viability (IMD-0354 + Vorinostat; first compound 0.4 µM) | relative viability (IMD-0354 + Vorinostat; first compound 1.265 µM) | relative viability (IMD-0354 + Vorinostat; first compound 4 µM) | relative viability (CX-5461 + Crizotinib; first compound 0.01 µM) | relative viability (CX-5461 + Crizotinib; first compound 0.03162 µM) | relative viability (CX-5461 + Crizotinib; first compound 0.1 µM) | relative viability (CX-5461 + Crizotinib; first compound 0.3162 µM) | relative viability (CX-5461 + Crizotinib; first compound 1 µM)
201T | 1.12 | 1.1 | 0.928 | 0.924 | 0.361 | 0.35 | 0.344 | 0.363 | 0.355 | 0.35 | 0.958 | 1.07 | 0.813 | 0.537 | 0.31 | 1.07 | 1.02 | 1.02 | 1.03 | 1.01
A549 |  |  |  |  |  |  |  |  |  |  |  |  |  |  |  | 0.824 | 0.804 | 0.357 | 0.655 | 0.0561
A-427 | 1.14 | 1.07 | 0.543 | 0.369 | 0.109 | 0.526 | 0.533 | 0.491 | 0.329 | 0.425 | 0.891 | 0.855 | 0.397 | 0.164 | 0.162 | 1.04 | 1.08 | 1 |  | 0.888
ABC-1 | 0.35 | 0.332 | 0.343 | 0.213 | 0.218 | 0.675 |  | 0.879 | 0.367 | 0.918 | 1.1 | 1.22 | 0.575 |  | 0.443 | 1.07 | 1.57 |  | 0.57 | 0.323
BEN | 0.874 | 0.964 | 0.462 | 0.296 | 0.217 | 0.497 | 0.441 | 0.433 | 0.5 | 0.437 | 0.586 | 0.667 | 0.48 | 0.441 | 0.391 | 1 | 0.905 | 0.912 | 0.832 | 0.752
CAL-12T | 1.03 | 0.963 | 0.682 | 0.177 | 0.18 | 0.49 | 0.511 | 0.448 | 0.347 | 0.121 | 1.1 | 0.912 | 0.411 | 0.25 | 0.227 | 0.564 | 0.588 |  | 0.653 | 0.365
COR-L23 | 0.932 | 0.823 | 0.372 | 0.114 | 0.249 | 0.27 | 0.269 | 0.233 | 0.234 | 0.125 | 0.419 | 0.466 | 0.403 | 0.0935 | 0.149 | 0.63 | 0.797 | 0.482 | 0.602 | 0.256
COR-L 105 | 0.757 | 0.663 | 0.76 | 0.239 | 0.274 | 0.414 | 0.403 | 0.393 | 0.319 | 0.357 | 0.863 | 0.771 | 0.672 | 0.679 | 0.378 | 1.12 | 0.992 | 0.861 | 0.745 | 0.325
Calu-6 | 1.1 | 1.1 | 0.673 | 0.167 | 0.124 |  |  |  |  |  |  |  |  |  |  | 0.861 | 0.809 | 0.722 | 0.723 | 0.289
ChaGo-K-1 | 1.39 | 1.21 | 0.67 | 0.326 | 0.39 | 0.965 | 0.95 | 0.927 | 0.933 | 0.899 | 0.851 | 0.741 | 0.519 | 0.244 | 0.255 | 1.17 | 1.21 | 1.06 | 0.341 | 0.79
EBC-1 | 0.54 | 0.59 | 0.471 | 0.184 | 0.195 |  |  |  |  |  |  |  |  |  |  | 0.174 | 0.207 | 0.19 | 0.215 | 0.156
EKVX | 1 | 1.39 |  | 0.716 | 0.187 | 0.399 | 0.396 | 0.406 |  | 0.298 | 0.469 | 0.754 | 0.556 | 0.691 | 0.359 | 1.12 | 0.997 | 0.899 |  | 0.827
EMC-BAC-2 | 1.17 | 1.03 | 0.553 | 0.634 | 0.217 | 0.515 | 0.515 | 0.468 | 0.433 | 0.412 | 0.547 | 0.473 | 0.419 |  | 0.439 | 0.782 | 0.839 | 0.725 | 0.541 | 0.74
EPLC-272H | 0.966 | 0.986 | 0.686 | 0.955 | 0.266 | 0.309 | 0.322 | 0.324 |  | 0.352 | 0.285 | 0.463 | 0.754 | 0.172 | 0.338 | 1.04 | 1.01 | 0.941 |  | 0.985
H3255 | 0.804 | 0.9 | 0.509 | 0.22 | 0.27 | 0.282 | 0.353 | 0.299 | 0.305 | 0.302 | 0.743 | 0.796 | 0.587 | 0.43 | 0.288 | 0.849 | 0.957 | 0.883 | 0.268 | 0.662
HARA | 0.948 | 1.13 | 0.543 | 0.122 | 0.213 | 0.24 | 0.227 | 0.331 | 0.228 | 0.253 | 0.562 | 0.507 | 0.355 | 0.265 | 0.072 | 1.16 | 1.14 | 0.941 | 0.206 | 0.954
HCC-15 | 1 | 0.962 | 0.549 | 0.346 | 0.119 | 0.705 | 0.759 | 0.808 | 0.725 | 0.592 | 0.931 | 0.799 | 0.516 | 0.327 | 0.2 | 0.884 | 0.888 | 0.765 | 0.766 | 0.691
HCC-44 | 0.913 | 0.918 | 0.35 | 0.213 | 0.179 | 0.906 | 1.05 | 0.969 | 0.926 | 0.953 | 1.03 | 1.05 | 1.07 | 0.873 | 0.364 | 0.796 | 0.832 | 0.823 | 0.782 | 0.801
